This note sets out measurements from US20040248918A1, “N-phenyl-2-pyrimidine-amine derivatives and process for the preparation thereof” (IL YANG PHARM. CO., LTD., priority 2003, published 2004).

The test system of data set [1] is K562 cancer cell (CML cell line). In words: Growth inhibition of K562 cancer cell (MTT). Particulars: for IC50: Homo sapiens, K562, 48 h, K562, 2 days, MTT, read-out: IC50. The format is cell-based. The procedure: In the present experiment, the inhibitory activity of the compound of formula (1) was determined against the growth of K562 cancer cell. First, the cells were allowed to stand in RPMI (Roswell Park Memorial Institute)-1640 medium containing 10% (v/v) fetal bovine serum in an incubator of 37° C. and 5% by volume of CO2. The cancer cells (1000 cells) were transferred to a 96-well plate, and the test compound was diluted. The plate was allowed to stand under the above mentioned conditions for 2 days. […] The supernatant was removed to leave the resulting crystal.

As a reminder, the melting point is the temperature, or range, at which the solid turns liquid. For orientation: IC50 means the concentration that inhibits the measured activity by half.

As to `CS(=O)(=O)O.Cc1cc(NC(=O)c2ccc(CNN3CCN(C)CC3)cc2)ccc1Nc1nccc(-c2cccnc2)n1`, the melting point lay in the range of 172 to 174 °C.

In turn, `CC(=O)O.CN1CCN(NCc2ccc(C(=O)Nc3ccc(Nc4nccc(-c5cccnc5)n4)cc3)cc2)CC1` showed a melting point of 169 to 171 °C.

`CN1CCN(NCc2ccc(C(=O)Nc3ccc(Nc4nccc(-c5cccnc5)n4)cc3)cc2)CC1.CS(=O)(=O)O` [Example 30, 4-(4-methylpiperazin-1-ylaminomethyl)-N-[4-(4-(pyridin-3-yl)pyrimidin-2-yl)aminophenyl]benzamide methanesulfonate] gave a melting point of 151 to 153 °C. Also, the IC50 in data set [1] was 22.8 µg/mL.

With `CN1CCN(Cc2ccc(C(=O)Nc3ccc(F)c(Nc4nccc(-c5cccnc5)n4)c3)cc2)CC1.CS(=O)(=O)O` [Example 32, 4-(4-methylpiperazin-1-ylmethyl)-N-[4-fluoro-3-(4-(pyridin-3-yl)pyrimidin-2-yl)aminophenyl]benzamide methanesulfonate], the melting point lay in the range of 172 to 174 °C. Also, the IC50 in data set [1] came out at 8.06 µg/mL.

As for `CN1CCN(NCc2ccc(C(=O)Nc3ccc(Nc4nccc(-c5cccnc5)n4)cc3)cc2)CC1.Cl` [Example 43, 4-(4-methylpiperazin-1-ylaminomethyl)-N-[4-(4-(pyridin-3-yl)pyrimidin-2-yl)aminophenyl]benzamide hydrochloride], the melting point was 183 to 185 °C. The IC50 in data set [1] is over 50 µg/mL.

In turn, `CN1CCN(NCc2ccc(C(=O)Nc3cccc(Nc4nccc(-c5cccnc5)n4)c3)cc2)CC1.CS(=O)(=O)O` [Example 14, 4-(4-methylpiperazin-1-ylaminomethyl)-N-[3-(4-(pyridin-3-yl)pyrimidin-2-yl)aminophenyl]benzamide methanesulfonate] displayed a melting point of 148 to 150 °C. For the same compound, the concentration for half-maximal inhibition (IC50) in data set [1] came out at 8.95 µg/mL.

With `CN1CCCN(Cc2ccc(C(=O)Nc3ccc(Nc4nccc(-c5cccnc5)n4)cc3)cc2)CC1.Cl` [Example 41, 4-(4-methylhomopiperazin-1-ylmethyl)-N-[4-(4-(pyridin-3-yl)pyrimidin-2-yl)aminophenyl]benzamide hydrochloride], in data set [1], the concentration for half-maximal inhibition (IC50) is 5.61 µg/mL.

As for `CN1CCCN(Cc2ccc(C(=O)Nc3cc(Nc4nccc(-c5cccnc5)n4)ccc3F)cc2)CC1.CS(=O)(=O)O` [Example 24, 4-(4-methylhomopiperazin-1-ylmethyl)-N-[2-fluoro-5-(4-(pyridin-3-yl)pyrimidin-2-yl)aminophenyl]benzamide methanesulfonate], the melting point was 125 to 127 °C. Moreover, the concentration for half-maximal inhibition (IC50) in data set [1] stood at 19.1 µg/mL.

`Cc1ccc(NC(=O)c2ccc(CNN3CCN(C)CC3)cc2)cc1Nc1nccc(-c2cccnc2)n1.Cl` [Example 42, 4-(4-methylpiperazin-1-ylaminomethyl)-N-[4-methyl-3-(4-(pyridin-3-yl)pyrimidin-2-yl)aminophenyl]benzamide hydrochloride]: the IC50 in data set [1] came out at 0.3 µg/mL. Further, the “Improved activity versus Imatinib mesylate” value in data set [1] (K562) is listed as “much higher activity”.

`CS(=O)(=O)O.Cc1cc(NC(=O)c2ccc(CN3CCCN(C)CC3)cc2)ccc1Nc1nccc(-c2cccnc2)n1` [Example 16, 4-(4-methylhomopiperazin-1-ylmethyl)-N-[3-methyl-4-(4-(pyridin-3-yl)pyrimidin-2-yl)aminophenyl]benzamide methanesulfonate] came in with a melting point of 166 to 168 °C. In addition, the IC50 in data set [1] is over 50 µg/mL.

As for `CN1CCN(NCc2ccc(C(=O)Nc3cc(Nc4nccc(-c5cccnc5)n4)ccc3F)cc2)CC1.CS(=O)(=O)O` [Example 28, 4-(4-methylpiperazin-1-ylaminomethyl)-N-[2-fluoro-5-(4-(pyridin-3-yl)pyrimidin-2-yl)aminophenyl]benzamide methanesulfonate], the melting point lay in the range of 142 to 144 °C. In addition, the IC50 in data set [1] is 8.63 µg/mL.
